Converted amounts (≈) assume the structure as drawn. The source made the active and inactive calls. No cut-off for these calls is given here.
Tests used:
[1] = Tmax in Wistar rat at […], po measured after 60 mins by HPLC analysis; format: ADME, organism-based; conditions: in vivo, dose 2.5 mg/kg
[2] = In vivo biased agonist activity at 5-HT1A receptor in rat prefrontal cortex assessed as serum concentration causing 50% increase in ERK1/2 phosphorylation level after oral administration measured 15 mins post drug administration
[3] = target: Adenosine receptor A2a (Homo sapiens) (UniProt P29274); experiment: Inhibition of adenosine receptor A2A (unknown origin) at 10 uM relative to control
Adenosine receptor A2a (Homo sapiens), sequence (P29274 whole entry): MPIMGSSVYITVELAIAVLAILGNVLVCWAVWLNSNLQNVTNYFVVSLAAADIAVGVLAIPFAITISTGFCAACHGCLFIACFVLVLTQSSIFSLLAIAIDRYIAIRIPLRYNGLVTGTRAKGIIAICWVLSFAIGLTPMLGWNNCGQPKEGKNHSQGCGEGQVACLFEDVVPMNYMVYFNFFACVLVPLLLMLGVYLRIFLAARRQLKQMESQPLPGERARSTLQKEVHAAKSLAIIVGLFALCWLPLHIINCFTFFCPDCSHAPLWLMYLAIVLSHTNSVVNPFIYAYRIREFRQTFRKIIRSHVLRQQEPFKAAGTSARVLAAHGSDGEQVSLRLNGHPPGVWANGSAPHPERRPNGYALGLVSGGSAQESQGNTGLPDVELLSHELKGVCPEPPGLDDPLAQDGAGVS

[4] = target: Alpha-1A adrenergic receptor (Homo sapiens) (UniProt P35348); experiment: Inhibition of adrenergic alpha-1A receptor (unknown origin) at 10 uM relative to control
[5] = target: Alpha-2A adrenergic receptor (Homo sapiens) (UniProt P08913); experiment: Inhibition of adrenergic alpha-2A receptor (unknown origin) at 10 uM relative to control
Alpha-2A adrenergic receptor (Homo sapiens), sequence (P08913 whole entry): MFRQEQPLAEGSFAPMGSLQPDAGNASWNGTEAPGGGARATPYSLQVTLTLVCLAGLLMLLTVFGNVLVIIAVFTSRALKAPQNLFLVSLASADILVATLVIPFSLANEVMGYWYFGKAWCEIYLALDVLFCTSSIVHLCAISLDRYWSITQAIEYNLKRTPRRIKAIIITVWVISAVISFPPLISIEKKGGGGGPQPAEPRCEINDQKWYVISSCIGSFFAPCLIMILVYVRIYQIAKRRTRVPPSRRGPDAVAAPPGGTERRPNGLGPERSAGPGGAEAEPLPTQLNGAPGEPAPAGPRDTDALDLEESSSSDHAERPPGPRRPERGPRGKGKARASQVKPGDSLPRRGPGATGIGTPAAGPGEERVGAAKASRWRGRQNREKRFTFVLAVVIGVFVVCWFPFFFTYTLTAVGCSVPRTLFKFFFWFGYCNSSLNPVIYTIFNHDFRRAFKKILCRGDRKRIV

[6] = target: Alpha-2A adrenergic receptor (Homo sapiens) (UniProt P08913); experiment: Inhibition of adrenergic alpha-2A receptor (unknown origin) at 1 uM relative to control
[7] = target: Cannabinoid receptor 2 (Homo sapiens) (UniProt P34972); experiment: Inhibition of cannabinoid receptor 2 (unknown origin) at 10 uM relative to control
[8] = target: D(1A) dopamine receptor (Homo sapiens) (UniProt P21728); experiment: Inhibition of dopamine D1 receptor (unknown origin) at 10 uM relative to control
D(2) dopamine receptor [9] = target: T1, D(2) dopamine receptor (Homo sapiens, UniProt P14416); experiment: Inhibition of dopamine D2S receptor (unknown origin) at 10 uM relative to control
T1 sequence (P14416 whole entry): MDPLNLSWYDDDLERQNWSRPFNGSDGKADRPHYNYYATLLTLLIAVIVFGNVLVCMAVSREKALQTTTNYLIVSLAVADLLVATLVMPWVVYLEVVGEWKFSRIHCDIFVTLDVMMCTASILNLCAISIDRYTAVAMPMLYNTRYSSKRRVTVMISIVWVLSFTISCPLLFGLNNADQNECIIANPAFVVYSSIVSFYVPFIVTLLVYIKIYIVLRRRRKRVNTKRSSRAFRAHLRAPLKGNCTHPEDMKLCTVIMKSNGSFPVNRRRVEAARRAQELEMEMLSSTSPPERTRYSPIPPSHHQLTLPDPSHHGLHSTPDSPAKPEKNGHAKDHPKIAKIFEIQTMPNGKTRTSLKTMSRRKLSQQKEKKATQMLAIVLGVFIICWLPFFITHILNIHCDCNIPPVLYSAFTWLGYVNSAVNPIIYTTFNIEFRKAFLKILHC

D(2) dopamine receptor [10] = target: T1, D(2) dopamine receptor; experiment: Inhibition of dopamine D2S receptor (unknown origin) at 1 uM relative to control
[11] = target: Histamine H1 receptor (Homo sapiens) (UniProt P35367); experiment: Inhibition of histamine H1 receptor (unknown origin) at 10 uM relative to control
Histamine H1 receptor (Homo sapiens), sequence (P35367 whole entry): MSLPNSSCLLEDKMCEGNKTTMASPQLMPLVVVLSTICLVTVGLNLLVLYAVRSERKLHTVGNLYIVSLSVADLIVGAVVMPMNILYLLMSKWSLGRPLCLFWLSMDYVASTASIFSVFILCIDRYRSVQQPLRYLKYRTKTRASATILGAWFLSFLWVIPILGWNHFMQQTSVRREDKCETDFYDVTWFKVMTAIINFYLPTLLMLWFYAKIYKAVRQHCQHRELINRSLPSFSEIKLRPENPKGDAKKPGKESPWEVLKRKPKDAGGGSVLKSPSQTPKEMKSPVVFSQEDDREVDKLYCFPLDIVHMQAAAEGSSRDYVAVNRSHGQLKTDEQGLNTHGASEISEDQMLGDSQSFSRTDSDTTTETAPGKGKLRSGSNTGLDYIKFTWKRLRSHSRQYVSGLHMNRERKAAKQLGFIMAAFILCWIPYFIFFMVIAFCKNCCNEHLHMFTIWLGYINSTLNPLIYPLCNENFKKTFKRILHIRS

Homo sapiens [12] = organism: Homo sapiens; experiment: Inhibition of delta 2-type opioid receptor (unknown origin) at 10 uM relative to control
[13] = target: Mu-type opioid receptor (Homo sapiens) (UniProt P35372); experiment: Inhibition of mu opioid receptor (unknown origin) at 10 uM relative to control
[14] = target: Vasopressin V1a receptor (Homo sapiens) (UniProt P37288); experiment: Inhibition of vasopressin V1a receptor (unknown origin) at 10 uM relative to control
[15] = target: Glucocorticoid receptor (Homo sapiens) (UniProt P04150); experiment: Inhibition of glucocorticoid receptor (unknown origin) at 10 uM relative to control
Glucocorticoid receptor (Homo sapiens), sequence (P04150 whole entry): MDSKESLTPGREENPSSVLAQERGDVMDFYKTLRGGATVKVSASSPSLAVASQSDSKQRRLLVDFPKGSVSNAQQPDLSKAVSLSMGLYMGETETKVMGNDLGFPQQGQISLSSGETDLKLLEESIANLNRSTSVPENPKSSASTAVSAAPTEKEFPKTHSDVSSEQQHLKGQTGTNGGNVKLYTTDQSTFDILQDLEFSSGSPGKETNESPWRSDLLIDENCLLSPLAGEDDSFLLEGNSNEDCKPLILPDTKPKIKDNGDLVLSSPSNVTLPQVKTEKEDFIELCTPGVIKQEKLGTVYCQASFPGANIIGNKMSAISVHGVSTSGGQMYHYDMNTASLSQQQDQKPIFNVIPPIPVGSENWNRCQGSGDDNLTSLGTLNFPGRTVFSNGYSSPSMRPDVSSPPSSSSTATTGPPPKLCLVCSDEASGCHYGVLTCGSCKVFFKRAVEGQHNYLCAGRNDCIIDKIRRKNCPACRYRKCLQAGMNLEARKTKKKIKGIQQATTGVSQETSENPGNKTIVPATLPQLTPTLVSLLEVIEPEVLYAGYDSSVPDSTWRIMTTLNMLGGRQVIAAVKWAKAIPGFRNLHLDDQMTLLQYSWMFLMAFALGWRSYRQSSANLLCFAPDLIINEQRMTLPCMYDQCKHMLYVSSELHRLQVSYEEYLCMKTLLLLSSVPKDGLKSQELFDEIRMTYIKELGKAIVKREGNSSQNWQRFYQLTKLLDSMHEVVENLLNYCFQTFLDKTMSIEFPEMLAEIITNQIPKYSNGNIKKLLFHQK

[16] = target: 5-hydroxytryptamine receptor 2A (Homo sapiens) (UniProt P28223); experiment: Inhibition of 5-HT2A (unknown origin) at 10 uM relative to control
[17] = target: 5-hydroxytryptamine receptor 6 (Homo sapiens) (UniProt P50406); experiment: Inhibition of 5-HT6 (unknown origin) at 1 uM relative to control
5-hydroxytryptamine receptor 6 (Homo sapiens), sequence (P50406 whole entry): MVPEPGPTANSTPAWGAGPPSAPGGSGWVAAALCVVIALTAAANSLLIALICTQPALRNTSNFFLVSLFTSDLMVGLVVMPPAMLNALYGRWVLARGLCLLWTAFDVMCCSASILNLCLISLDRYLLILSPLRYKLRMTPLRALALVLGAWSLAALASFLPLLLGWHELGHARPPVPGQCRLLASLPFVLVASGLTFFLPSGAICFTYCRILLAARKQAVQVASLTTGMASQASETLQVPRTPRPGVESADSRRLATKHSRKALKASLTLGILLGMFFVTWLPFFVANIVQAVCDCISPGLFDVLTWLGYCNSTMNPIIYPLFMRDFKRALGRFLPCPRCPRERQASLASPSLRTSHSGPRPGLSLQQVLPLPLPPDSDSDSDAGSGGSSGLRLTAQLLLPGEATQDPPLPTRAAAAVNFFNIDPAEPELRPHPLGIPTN

[18] = target: Sodium-dependent dopamine transporter (Homo sapiens) (UniProt Q01959); experiment: Inhibition of dopamine transporter (unknown origin) at 10 uM relative to control
Sodium-dependent dopamine transporter (Homo sapiens), sequence (Q01959 whole entry): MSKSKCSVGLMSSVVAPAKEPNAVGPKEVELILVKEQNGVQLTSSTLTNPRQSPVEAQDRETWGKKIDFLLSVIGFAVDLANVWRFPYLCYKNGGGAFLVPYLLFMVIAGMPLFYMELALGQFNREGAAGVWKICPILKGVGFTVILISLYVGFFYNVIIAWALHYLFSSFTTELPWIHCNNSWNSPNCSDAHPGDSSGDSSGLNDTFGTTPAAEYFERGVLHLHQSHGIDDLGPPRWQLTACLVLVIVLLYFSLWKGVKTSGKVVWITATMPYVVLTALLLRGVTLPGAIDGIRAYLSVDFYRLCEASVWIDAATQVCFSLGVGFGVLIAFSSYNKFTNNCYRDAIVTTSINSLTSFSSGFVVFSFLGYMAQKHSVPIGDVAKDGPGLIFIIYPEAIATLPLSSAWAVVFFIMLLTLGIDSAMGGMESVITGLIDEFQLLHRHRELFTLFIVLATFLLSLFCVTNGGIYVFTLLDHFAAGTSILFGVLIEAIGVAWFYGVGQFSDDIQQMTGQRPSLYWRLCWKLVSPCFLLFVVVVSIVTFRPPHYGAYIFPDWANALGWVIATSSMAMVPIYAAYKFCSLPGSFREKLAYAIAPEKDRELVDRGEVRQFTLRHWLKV

[19] = target: Sodium-dependent serotonin transporter (Homo sapiens) (UniProt P31645); experiment: Inhibition of serotonin transporter (unknown origin) at 10 uM relative to control
[20] = target: Neuronal acetylcholine receptor; alpha4/beta2 (Homo sapiens) (UniProt P17787+P43681); experiment: Inhibition of nicotinic acetylcholine receptor alpha4beta2 (unknown origin) at 10 uM relative to control; format: protein-complex assay
hERG (KCNH2) [21] = target: T2, hERG (KCNH2) (Homo sapiens, UniProt Q12809); experiment: Displacement of [3H]-dofetilide from human ERG (unknown origin) at 10 uM relative to control; conditions: probe [3H]-dofetilide
T2 sequence (Q12809 whole entry): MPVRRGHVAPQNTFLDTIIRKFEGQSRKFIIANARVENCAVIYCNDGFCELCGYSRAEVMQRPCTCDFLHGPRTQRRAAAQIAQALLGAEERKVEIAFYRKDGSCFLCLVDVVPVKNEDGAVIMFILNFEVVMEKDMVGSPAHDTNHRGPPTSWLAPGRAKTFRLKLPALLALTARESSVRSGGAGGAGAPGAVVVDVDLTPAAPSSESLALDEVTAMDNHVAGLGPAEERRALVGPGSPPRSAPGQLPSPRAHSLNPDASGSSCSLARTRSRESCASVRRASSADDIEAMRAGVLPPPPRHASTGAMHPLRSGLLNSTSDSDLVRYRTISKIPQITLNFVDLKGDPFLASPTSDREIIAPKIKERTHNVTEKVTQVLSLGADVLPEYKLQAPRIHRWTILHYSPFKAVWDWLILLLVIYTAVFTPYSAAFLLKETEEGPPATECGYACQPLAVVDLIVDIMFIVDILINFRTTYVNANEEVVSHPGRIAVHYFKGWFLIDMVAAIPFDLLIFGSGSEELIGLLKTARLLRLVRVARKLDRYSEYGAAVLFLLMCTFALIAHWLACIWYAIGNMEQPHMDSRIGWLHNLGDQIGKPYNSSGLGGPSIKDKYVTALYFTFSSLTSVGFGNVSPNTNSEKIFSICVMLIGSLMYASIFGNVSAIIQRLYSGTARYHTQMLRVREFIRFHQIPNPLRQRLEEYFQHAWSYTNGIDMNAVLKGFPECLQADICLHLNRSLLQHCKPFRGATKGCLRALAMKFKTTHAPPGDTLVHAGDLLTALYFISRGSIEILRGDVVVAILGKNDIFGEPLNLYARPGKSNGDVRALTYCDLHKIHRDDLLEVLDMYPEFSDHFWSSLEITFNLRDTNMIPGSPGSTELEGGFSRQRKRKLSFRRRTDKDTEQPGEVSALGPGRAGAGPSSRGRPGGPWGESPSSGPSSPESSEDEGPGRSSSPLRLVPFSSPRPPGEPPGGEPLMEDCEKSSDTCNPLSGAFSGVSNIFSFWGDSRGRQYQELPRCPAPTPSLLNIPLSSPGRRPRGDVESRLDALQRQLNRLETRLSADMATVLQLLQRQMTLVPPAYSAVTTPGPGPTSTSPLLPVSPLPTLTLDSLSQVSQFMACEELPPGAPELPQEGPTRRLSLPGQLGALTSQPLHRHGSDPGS

Homo sapiens [22] = organism: Homo sapiens; experiment: Inhibition of sodium channel site2 (unknown origin) at 10 uM relative to control
[23] = target: cGMP-inhibited 3',5'-cyclic phosphodiesterase 3A (Homo sapiens) (UniProt Q14432); experiment: Inhibition of PDE3A (unknown origin) at 10 uM relative to control
hERG (KCNH2) [24] = target: T2, hERG (KCNH2); experiment: Inhibition of human ERG at 0.1 uM by patch clamp technique relative to control
hERG (KCNH2) [25] = target: T2, hERG (KCNH2); experiment: Inhibition of human ERG at 10 uM by patch clamp technique relative to control
[26] = Aqueous solubility of compound in pH 7.4 PBS buffer at 200 uM; format: physicochemical
[27] = Aqueous solubility of compound in simulated gastric fluid at 200 uM; format: physicochemical
[28] = Intrinsic clearance in human liver microsomes at 0.1 uM; format: ADME, Microsome; conditions: read-out: CLH
[29] = target: Histamine H1 receptor (Homo sapiens) (UniProt P35367); experiment: Displacement of [3H]-pyrilamine from human recombinant histamine H1 receptor stably expressed in CHO-K1 cell membranes at 1 uM measured after 60 mins by microbeta2 scintillation counting analysis relative to control; conditions: Cell membrane
Rattus norvegicus [30] = experiment: In vivo biased agonist activity at 5-HT1A receptor in rat prefrontal brain cortex assessed as increase in ERK1/2 phosphorylation levels at […], po administered as single dose by Alphalisa assay; format: functional, organism-based; conditions: time 5-60 min, TDE = time-dependent effect
Rattus norvegicus [31] = experiment: In vivo biased agonist activity at 5-HT1A receptor in rat prefrontal brain cortex assessed as increase in ERK1/2 phosphorylation levels at […], po administered as single dose measured after 30 mins by Alphalisa assay; format: functional, organism-based
Rattus norvegicus [32] = experiment: In vivo biased agonist activity at 5-HT1A receptor in rat prefrontal brain cortex assessed as increase in ERK1/2 phosphorylation levels at 0.04 to […], po measured at 15 mins by Alphalisa assay; format: functional, organism-based; conditions: dose lower 0.04 mg/kg, dose upper […]
[33] = Cmax in Wistar rat brain at […], po measured after 60 mins by HPLC analysis; format: ADME, organism-based; set-up: route oral, dose 2.5 mg/kg, time 60 min
Rattus norvegicus [34] = experiment: Antidepressant-like activity in Wistar rat assessed as minimum effective dose causing reduction in immobility time after oral administration with compound 15 mins prior to testing and measured for 5 mins test period by Porsolt-forced swim test; format: functional; conditions: 20 min, read-out: MED
Rattus norvegicus [35] = experiment: Antidepressant-like activity in Wistar rat assessed as serum concentration causing 50% reduction in immobility time after oral administration of compound and measured after 15 mins by Porsolt-forced swim test; format: functional
Rattus norvegicus [36] = experiment: Antidepressant-like activity in Wistar rat assessed as maximum effective dose causing reduction in immobility time after oral administration with compound 60 mins prior to testing and measured for 5 mins test period by Porsolt-forced swim test; format: functional; conditions: time 65 min; 1.083 h
Rattus norvegicus [37] = experiment: Antidepressant-like activity in Wistar rat assessed as reduction in immobility time at 0.04 to […], po administered 60 mins prior to testing and measured for 5 mins test period in presence of 5-HT1A antagonist WAY100635 by Porsolt-forced swim test; format: functional, organism-based; conditions: dose lower 0.04 mg/kg, dose upper […], time 65.0 min
in vitro = conditions: human, Caco-2, pH 6.5

Question: For `O=C(c1ccc(F)c(Cl)c1)N1CCC(F)(CNCCOc2ccccn2)CC1`, which Tmax at 1 h [1] is on record?
Answer: 15 min

Question: What about the EC [2] of the same compound?
Answer: 17.2 ng/mL

Question: And the inhibition [3]?
Answer: 11.8%

Question: And the inhibition [4]?
Answer: 99.7%

Question: What about the inhibition [5] of the same compound?
Answer: 94.3%

Question: What about the inhibition [6] of the same compound?
Answer: 29.9%

Question: And the inhibition [7]?
Answer: -3.1%

Question: And the inhibition [8]?
Answer: 38.2%

Question: What about the inhibition (D(2) dopamine receptor [9]) of the same compound?
Answer: 91.3%

Question: What about the inhibition (D(2) dopamine receptor [10]) of the same compound?
Answer: 9.5%

Question: What about the inhibition [11] of the same compound?
Answer: -0.5%

Question: And the inhibition (Homo sapiens [12])?
Answer: 7.2%

Question: And the inhibition [13]?
Answer: 42.9%

Question: And the inhibition [14]?
Answer: 7%

Question: What about the inhibition [15] of the same compound?
Answer: -5.1%

Question: And the inhibition [16]?
Answer: 9%

Question: And the inhibition [17]?
Answer: 12.1%

Question: And the inhibition [18]?
Answer: 20.4%

Question: And the inhibition [19]?
Answer: 0.9%

Question: And the inhibition [20]?
Answer: -5.4%

Question: What about the inhibition at 10 µM (hERG (KCNH2) [21]) of the same compound?
Answer: 16.2%

Question: And the inhibition (Homo sapiens [22])?
Answer: 48.8%

Question: What about the inhibition [23] of the same compound?
Answer: -3.9%

Question: What about the inhibition at 0.1 µM (hERG (KCNH2) [24]) of the same compound?
Answer: 0.1%

Question: What about the inhibition at 10 µM (hERG (KCNH2) [25]) of the same compound?
Answer: 46.5%

Question: What about the solubility at 200 µM [26] of the same compound?
Answer: 192 µM (≈ 78.8 µg/mL)

Question: What about the solubility at 200 µM [27] of the same compound?
Answer: 200 µM (≈ 82 µg/mL)

Question: And the microsomal CLint at 0.1 µM [28]?
Answer: < 115 µL/min/mg

Question: And the Activity [29]?
Answer: < 50%

Question: And the Activity (Rattus norvegicus [30])?
Answer: Tde

Question: And the Activity (Rattus norvegicus [31])?
Answer: Active

Question: What about the Activity (Rattus norvegicus [32]) of the same compound?
Answer: Active

Question: And the Cmax at 1 h [33]?
Answer: 124 ng/mL

Question: What about the minimal effective dose (Rattus norvegicus [34]) of the same compound?
Answer: 0.16 mg/kg

Question: What about the EC (Rattus norvegicus [35]) of the same compound?
Answer: 6.76 ng/mL

Question: And the ED (Rattus norvegicus [36])?
Answer: 2.5 mg/kg

Question: What about the Activity (Rattus norvegicus [37]) of the same compound?
Answer: inactive

Question: What about the Papp A→B (in vitro) of the same compound?
Answer: 25.9 ×10⁻⁶ cm/s
